According to PubChem BioAssay (NCI):
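Step 1: Grow cells in 96-well plates. Step 2: Expose to compound for 48 hours at 5 concentrations. Step 3: Interpolate endpoints linearly; if unreached, use highest concentration. Here, GI50 denotes the concentration required for 50% inhibition of growth. Definition used: TGI = concentration required for complete inhibition of growth.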

Columns and labels:
Test in all cases: NCI tumour cell line growth inhibition, 48 h
CCRF-CEM leukemia = tested on: CCRF-CEM leukemia
HL-60(TB) leukemia = tested on: HL-60(TB) leukemia
HT29 colon = tested on: HT29 colon
LOX IMVI melanoma = tested on: LOX IMVI melanoma
MALME-3M melanoma = tested on: MALME-3M melanoma
MCF7 breast = tested on: MCF7 breast
MDA-MB-435 = tested on: MDA-MB-435
MOLT-4 leukemia = tested on: MOLT-4 leukemia
SNB-19 CNS = tested on: SNB-19 CNS
786-0 renal = tested on: 786-0 renal

SMILES	TGI (CCRF-CEM leukemia) [µM]	TGI (HL-60(TB) leukemia) [µM]	TGI (HT29 colon) [µM]	TGI (LOX IMVI melanoma) [µM]	TGI (MALME-3M melanoma) [µM]	TGI (MCF7 breast) [µM]	TGI (MDA-MB-435) [µM]	TGI (MOLT-4 leukemia) [µM]	TGI (SNB-19 CNS) [µM]	TGI (786-0 renal) [µM]	GI50 (HT29 colon) [µM]	GI50 (LOX IMVI melanoma) [µM]	GI50 (MALME-3M melanoma) [µM]	GI50 (MOLT-4 leukemia) [µM]	GI50 (SNB-19 CNS) [µM]	GI50 (CCRF-CEM leukemia) [µM]	GI50 (HL-60(TB) leukemia) [µM]	GI50 (MCF7 breast) [µM]	GI50 (MDA-MB-435) [µM]
CON(C)c1nc(N)c(C#N)c(C#N)c1C#N	> 10	> 10	> 10	> 10	> 10	> 10	> 10	> 10	> 10	–	–	–	–	–	–	–	–	–	–
C=C1CC[C@@]2(C)[C@@H]([C@@H]1C)[C@H]1CC[C@@H]3[C@@]4(C)CC[C@H](O)C(C)(C)[C@@H]4CC[C@@]3(C)[C@]1(C)C[C@@H]2O	> 100	> 55.7	19.6	3.47	12.3	9.23	26	> 100	8.44	–	–	–	–	–	–	–	–	–	–
C=C1C(=O)OC2C1CCC(=C)C1CC(O)C(=C)C12 (configuration not stated)	7.44	5.79	19.3	20.9	30.1	25.5	58.8	25	66.6	19.6	–	–	–	–	–	–	–	–	–
Cc1cc(OCc2nc(N)nc(N)c2-c2ccc(Cl)c(Cl)c2)ccc1[N+](=O)[O-]	2.27	3.56	18.1	37.8	29.5	8.15	21.5	> 27.5	> 55.1	22.3	–	–	–	–	–	–	–	–	–
O=C([CH-]C(=O)c1ccccc1)c1ccccc1.[C-]#[O+].[C-]#[O+].[Ir]	–	–	> 100	> 100	> 100	–	–	> 100	> 100	–	63.5	46.5	> 100	56.7	66.4	–	–	–	–
O=C(O)c1cc2ccccc2c(Cc2c(O)c(C(=O)O)cc3ccccc23)c1O	> 100	> 100	> 100	> 100	> 100	–	> 100	> 100	> 100	> 100	–	–	–	–	–	–	–	–	–
COc1ccc(CN(CCN(C)C)c2ccccn2)cc1 (tested in a mixture with another compound)	> 100	–	> 100	–	> 100	–	–	> 100	> 100	> 100	–	–	–	–	–	–	–	–	–
Cc1cc(N(CCC#N)S(=O)(=O)c2ccccc2)ccc1C=Nc1cccc(C(=O)O)c1	> 100	> 100	> 100	–	> 100	–	–	> 100	> 100	–	–	–	–	–	–	–	–	–	–
COc1cccc(N/C(C)=C2/CCOC2=O)c1	> 10	> 10	> 10	> 10	> 10	> 10	> 10	> 10	> 10	–	–	–	–	–	–	–	–	–	–
Oc1cc(O)c2c(c1)O[C@H](c1ccc(O)c(O)c1)[C@@H](O)C2	> 100	> 100	> 100	> 100	> 100	> 100	> 100	> 100	> 100	> 100	–	–	–	–	–	–	–	–	–
CC1(CO)C(O)CCC2(C)C1CCC1CC3CC12CCC3(O)CO (configuration not stated)	> 100	> 100	> 100	> 100	> 100	> 100	–	> 100	> 100	–	–	–	–	–	–	–	–	–	–
O=C(Nc1ccccc1)c1cc2ccccc2c(N=Nc2cccc([N+](=O)[O-])c2)c1O	> 100	–	> 100	–	> 100	> 100	> 100	> 100	97.2	> 100	–	–	–	–	–	–	–	–	–
C[C@@H]1C[C@H]2OC(=O)[C@@]3(C)CCC[C@@](C)([C@@H]23)[C@@]1(O)CCc1ccoc1	> 100	> 88.6	> 100	> 100	–	> 100	> 100	> 94.4	> 100	> 100	–	–	–	–	–	–	–	–	–
C1=N[C@]23C(=N[C@H](N=C2NCc2ccco2)[C@]24N=CNC2=N[C@H]3N=C4NCc2ccco2)N1	> 100	> 100	> 100	> 100	> 100	> 100	> 100	> 100	> 100	–	> 100	> 100	> 100	> 100	> 100	> 100	> 100	> 100	> 100
Cc1c(C)c2c(c(C)c1OC(=O)CCC(=O)[O-])CCC(C)(CCCCCCCCCCC[P+](c1ccccc1)(c1ccccc1)c1ccccc1)O2 (configuration not stated)	1.31	0.566	2.07	0.747	–	0.815	0.67	4.7	–	–	0.166	0.194	–	0.456	–	0.226	0.14	0.161	0.179
O=C(NN1C(=O)C(Cl)C1c1cccc(O)c1)c1ccccc1O (configuration not stated)	> 100	> 100	> 100	> 100	> 100	–	–	> 100	> 100	–	–	–	–	–	–	–	–	–	–
